In patent publication US20230365624A1, “NOVEL ANGIOTENSIN I-CONVERTING ENZYME (ACE) INHIBITORY PEPTIDES” (Thai Union Group Public Company Limited, priority 2020, published 2023):
Marks after values point to notes of the source that are not given here. No end group written: not given here.

Key:
[1] = biological target: angiotensin I-converting enzyme (ACE) (Homo sapiens, UniProt P12821); experiment: ACE inhibitory activity assay (HHL substrate, hippuric acid absorbance at 228 nm); assay type: biochemical; details: for inhibition at 1000 µg/mL: synthetic peptides at 1 mg/ml
angiotensin I-converting enzyme (ACE), sequence (P12821 30-1306, species assumed): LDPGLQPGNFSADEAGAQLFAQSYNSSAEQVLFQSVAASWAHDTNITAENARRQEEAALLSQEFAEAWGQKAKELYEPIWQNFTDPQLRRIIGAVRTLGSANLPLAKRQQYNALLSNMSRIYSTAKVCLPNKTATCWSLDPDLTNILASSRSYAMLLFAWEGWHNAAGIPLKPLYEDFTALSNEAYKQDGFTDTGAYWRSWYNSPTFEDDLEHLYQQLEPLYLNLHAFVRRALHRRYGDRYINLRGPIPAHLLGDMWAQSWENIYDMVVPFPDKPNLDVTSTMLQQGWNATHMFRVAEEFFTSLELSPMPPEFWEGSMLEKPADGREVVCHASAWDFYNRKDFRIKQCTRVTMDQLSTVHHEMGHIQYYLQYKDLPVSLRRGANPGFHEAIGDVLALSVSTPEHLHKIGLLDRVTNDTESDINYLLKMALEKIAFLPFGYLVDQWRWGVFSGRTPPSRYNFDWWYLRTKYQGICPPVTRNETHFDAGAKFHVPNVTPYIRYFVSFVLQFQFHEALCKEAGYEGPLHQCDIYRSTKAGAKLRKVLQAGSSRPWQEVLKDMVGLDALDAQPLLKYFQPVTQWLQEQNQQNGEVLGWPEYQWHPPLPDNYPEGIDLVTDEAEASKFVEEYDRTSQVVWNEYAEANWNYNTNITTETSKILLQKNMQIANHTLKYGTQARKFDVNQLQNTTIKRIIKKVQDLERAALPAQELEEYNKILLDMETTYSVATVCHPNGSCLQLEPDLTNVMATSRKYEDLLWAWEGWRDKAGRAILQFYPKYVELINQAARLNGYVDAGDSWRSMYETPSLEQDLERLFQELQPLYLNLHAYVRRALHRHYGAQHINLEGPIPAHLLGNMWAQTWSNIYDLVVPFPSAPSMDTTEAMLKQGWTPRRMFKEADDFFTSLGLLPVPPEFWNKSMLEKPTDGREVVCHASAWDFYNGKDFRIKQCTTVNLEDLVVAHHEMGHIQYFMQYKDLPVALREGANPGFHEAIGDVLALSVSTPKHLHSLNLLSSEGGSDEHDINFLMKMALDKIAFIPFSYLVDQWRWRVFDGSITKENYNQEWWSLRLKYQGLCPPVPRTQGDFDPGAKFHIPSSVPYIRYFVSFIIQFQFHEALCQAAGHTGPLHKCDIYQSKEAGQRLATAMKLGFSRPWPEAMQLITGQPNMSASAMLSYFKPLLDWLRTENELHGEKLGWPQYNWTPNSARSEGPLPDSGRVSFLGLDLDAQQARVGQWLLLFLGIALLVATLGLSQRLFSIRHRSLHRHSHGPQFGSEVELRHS
Protocol: ACE inhibitory activity assay was carried out according to the methods of Cushman and Cheung (1971) and Wu et al. (2002) with some modifications. A reaction mixture containing 50 µl of hydrolysate or peptides, 150 µl of 8.3 mM Hippuryl-L-histidyl-L-leucine (HHL), and 50 µl of ACE (25 mU/ml) was incubated at 37° C. for 1 h. Subsequently, 250 µl of 1 M HCl was added to terminate the reaction. The released hippuric acid (HA) was extracted by adding 2.5 ml ethyl acetate, and the mixture was mixed with a vortex for 1 min and left at room temperature for 1 h. Then, 2 ml of the upper layer was transferred into beaker and dried at 80° C. to remove ethyl acetate. Finally, 1 ml of deionized water was added to dissolve the HA. Absorbance was measured at 228 nm. The percentage of ACE inhibition was calculated as follows: […]
where A is the absorbance at 228 nm of a reaction containing ACE without hydrolysate; B is the absorbance at 228 nm of a reaction containing ACE previously inactivated by adding HCl in the absence of hydrolysate; C is the absorbance at 228 nm of a reaction in the presence of ACE and hydrolysate; and D is the absorbance at 228 nm of a reaction containing ACE previously inactivated by adding HCl in the presence of hydrolysate. The IC50 was defined as the concentration of inhibitor required to inhibit 50% of the ACE activity. Specific inhibitory activity was calculated as ACE inhibition (%) divided by total peptide content (mg).

[2] = system: GI enzymes (pepsin and pancreatin); experiment: In vitro gastrointestinal (GI) digestion of synthetic peptides, with ACE inhibitory activity and α-amino group content before and after; assay type: in vitro ADME; details: pepsin pH 2.0, 37° C., 1 h, then pancreatin pH 7.5, 37° C., 2 h (FIG. 6)
Protocol: It is necessary for ACE inhibitory peptides to retain its activity in GI tract so that it can be absorbed into the bloodstream, where the peptide inhibitors can show their hypotensive effect. In vitro gastrointestinal digestion provides an easy process to imitate antihypertensive activity of peptides under oral administration. […] In vitro GI digestion was simulated according to the method of Zhu et al. (2008) with some modifications. One milligram of each sample was dissolved in 0.5 ml of 0.1 M KCl-HCl, and the pH was adjusted to 2.0 with 6 M HCl. Pepsin (1% enzyme/substrate, w/w) was added, and the mixture was incubated in a shaking water bath at 37° C. for 1 h, and the pH was then adjusted to pH 7.5. […] ACE inhibitory activity and α-amino groups content of the peptides before and after in vitro GI digestion were measured. […]
ACE inhibitory activity assay was carried out according to the methods of Cushman and Cheung (1971) and Wu et al. (2002) with some modifications. […] Absorbance was measured at 228 nm. The percentage of ACE inhibition was calculated as follows: […]
Content of α-amino groups was performed according to Adler-Nissen (1979). […] The mixture was left at room temperature for 30 min before an absorbance at 420 nm was monitored. […] The content of α-amino groups was expressed as leucine equivalents.

ACE = ACE (Homo sapiens, UniProt P12821); details: Wu et al. (2008); Balti et al. (2010); read-out: IC50 (ACE inhibition); cited from earlier work
ACE, sequence (P12821 30-1306, species assumed): as above

[3] = synthesized in silico GI digestion products of VR9

Substance	IC50 [1] [µM]	inhibition at 1000 µg/mL [1] [%]	IC50 (ACE) [µM]	also measured
NLLPHR [NLLPHR]	1.24	94.9 ± 0.97		Decrease of ACE inhibitory activity after GI digestion [2]: approximately 30%
VIY [in silico GI digestion product of VR9]				ACE inhibitory activity (%) At 1 mg/ml [1, 3]: 18.51 ± 1.12^a %
INCR				ACE inhibitory activity (%) At 1 µg/ml ([1]; 1 µg/ml, synthesized in silico GI digestion products of VR9): 29.10 ± 1.06^c %; ACE inhibitory activity (%) At 1 mg/ml [1, 3]: 100.79 ± 0.71^c %
VSVVQYSR [VSVVQYSR]	0.95	94.15 ± 0.2		
VIYSRINCR [VIYSRINCR]	0.24	97.02 ± 0.46		Decrease of ACE inhibitory activity after GI digestion [2]: ~14%
MAW			16.3	
VYAP			6.1	
VIIF			8.7	
